Results on four compounds are retold here after patent US20070042967A1, “Proteaseome inhibitors for the treatment of herpesviridae infected individuals” (priority 2002, published 2007).

Where a SMILES comes first, the peptide text is derived from it. The star is where a group is joined. Cbz = O=C(OCc1ccccc1)*; OtBu = CC(C)(C)O*

The test system of assay [1] is HCMV IE1/2 enhancer/promoter. Kind of assay: TNFα stimulation / basal activity of the HCMV IE1/2 enhancer/promoter, CAT reporter (pRR55) in HL-60 cells. The settings on record: for influence on TNFα stimulation of the IE1/2 enhancer/promoter (in words): HL-60, HCMV AD169 promoter. Format: cell-based, HCMV strain Ad169. The procedure: As a model for undifferentiated monocyte/granulocyte progenitor cells HL-60, cells (ATCC No. CCL 240) expressing high levels of CD34+ but low levels of typical differentiation antigens like CD11a-c and CD14 on their surface were used. Furthermore, HL-60 cells have retained the ability, to differentiate into granulocytes and monocytes depending on the stimulus. HL-60 cells were grown in RPMI 1640 medium supplemented with 10% fetal calf serum (both certified endotoxin-free, Biochrome, Germany) at 37° C. in a 5% humidified atmosphere. […] The cells were grown up to 1×10^6 cells per ml. HL-60 cells were transiently transfected with the plasmid pRR55 containing the native HCMV strain Ad169 IE1/2 enhancer/promoter region between nucleotides […] and +52 relative to the transcription start site upstream of the chloramphenicol acetyl transferase (CAT) reporter gene (Fickenscher et al., 1989). Plasmid DNA was prepared using the endofree Maxi Kit (QUIAGEN, Germany or Machery & Nagel, Germany) and stored in aliquots at −20° C. Transient transfection was performed using the DEAE transfection protocol (Stein et al., 1993). Per transfection reaction 5×10^5 cells were washed once with FCS-free medium and then resuspendend in 250 μl transfection buffer containing 1×TBS (24 mM Tris-HCl, pH 7.4, 137 mM NaCl, 5 mM KCl, 0.7 mM CaCl2, 0.5 mM MgCl2, 0.6 mM Na2HPO4), 2.5 μg plasmid DNA (1 μg/μl ) and 5 mg/ml DEAE dextran (Pharmacia-Amersham, Germany). To avoid differences in transfection efficiency, cells for parallel probes were transfected in one reaction and splitted after transfection. Transfection occurred for 1 h at 37° C. After that the cells were washed once with FCS-free RPMI 1640 medium and resuspended in medium containing 10% FCS at a concentration of 5×10^5 cells/5 ml. MG-132 (Calbiochemie, Germany) was dissolved in ethanol (5 μg/μl) and stored in aliqotes at −20 ° C. MG-132 was added into the medium at time zero after transfection and 1 h before TNFα (5 ng/ml, human recombinant TNFα; PAN, Germany, stored in aliquots containing 10 μg/μl at −80° C.). The cells were harvested 48 h after transfection, washed once with PBS and resuspended in 70 μl CAT buffer 1 (0.25 M Tris/HCl, pH 7.8, 0.5 mM EDTA). After 10 min of incubation on ice, cell extracts were prepared by repeated frozen/thawing of the cells (routinely 5 times), 10 min incubation at 65 ° C. to inactivate isoenzymes. Cell debris was removed by centrifugation at 12000 rpm for 10 min in an Eppendorf centrifuge. Cell extracts were measured for their protein concentrations using the method of Bradford (Bradford, 1976) and Bradford reagent (Sigma, Germany). Equal quantities of protein were used in the CAT-assay as described by Gorman et al., 1982. 20 μl lysates were incubated with [^14C]chloramphenicol (Hartman Analytic, Germany) and acetyl-CoA (Sigma, Germany) at 37° C. Reaction was stopped by extraction with ethylacetat (Merck, Germany). The acetylated products were quantified after separation by thin-layer chromatography using a thin layer scintillator. […] In the presence of 0.1 μg/ml MG-132 reduced TNFα stimulation by 50% (FIG. 1).
The reporter gene plasmid pRR55 contains the whole HCMV IE1/2 enhancer/promoter region between nucleotides +52 and −637 with respect to the IE1 transcriptions start site, upstream of the chloramphenicol acetyltransferase (CAT) gene [Fickenscher H, Stamminger T, Riiger R & Fleckenstein B. The role of a repetetive palindrormic sequence element in the human cytomegalovirus major immediate early enhancer. J Gen Virol 1989; 70:107-123.]. The plasmid was kindly provided by T. Stamminger (Eriangen, Germany). For transient transfection of HL-60 cells we used the DEAE dextran method as described earlier [Stein J, Volk H D, Liebenthal C, Kruger D H & Prosch S. Tumor necrosis factor alpha stimulates the activity of the human cytomegalovirus major immediate early enhancer/promoter in immature monocytic cells. J Gen Virol 1993; 74:2333-2338]. […]

In another assay the test system is ICAM-1 (CD54). As to the kind of experiment: Surface expression of ICAM-1 (CD54) on HELF by flow cytometric analysis. Format: cell-based, human. The settings on record: GCV for comparison; AD169 m.o.i.=1. The procedure:
Next, we wondered whether MG132 is able to reduce the immune modulatory activity of HCMV. Therefore we measured the levels of extracellular IL-6, IL-8, and RANTES in the supernatants of mock-infected and AD-169-infected HELF (m.o.i. =1) following culture in the presence or absence of increasing amounts of MG132. In parallel, surface expression of ICAM-1 (CD54) was measured by flow cytometric analysis. As expected infection of HELF with AD 169 increased secretion of IL-6, EL-8 and RANTES (data not shown) as well as surface expression of ICAM-1 over time (FIGS. 14A and B). […]
Cell culture fluids were tested for RANTES using the ELISA KIT from R&D System, Germany, following the manufacturers instructions. […] Surface CD54 amounts were analysed using a FACScalibur analyser and cellquest software (Becton Dickinson, Germany). Data were calculated as A mean fluorescence intensities of CD54 and isotype control antibodies (=specific mean fluorescence intensity, MFI).
MG132-dependent suppression of HCMV-induced ICAM-1 surface expression Uninfected and AD169-infected HELF (m.o.i.=1) were grown in the absence or presence of MG132 or GCV and harvested 24 h (A) or 48 h (B) p.i. for surface ICAM-1 measurement by flowcytometric analysis. The specific MFI of uninfected and untreated control HELF was calculated as 100%. […]

For “N-carbobenzoxy-L-leucinyl-L-leucinyl-L-leucinal [MG-132]”, the “influence on TNFα stimulation of the IE1/2 enhancer/promoter (in words)” value in assay [1] is “decreased TNFα stimulation of the IE1/2 enhancer/promoter in a concentration-dependent manner”.

As for `Nc1nc(O)c2ncn(COC(CO)CO)c2n1` [GCV, Ganciclovir], the “influence on virus-induced ICAM-1 expression” value in the assay with ICAM-1 (CD54) is recorded as “no influence”.

With `CC(C)C[C@H](NC(=O)OCc1ccccc1)C(=O)N[C@@H](CC(C)C)C(=O)N[C@H](C=O)Cc1ccccc1` [PS-2, Z-Leu-Leu-Phe-CHO] (Cbz-Leu-Leu-Phe-aldehyde), the “influence on TNFα stimulation of the IE1/2 enhancer/promoter (in words)” value in assay [1] is “reduce TNFα stimulation in a concentration-dependent manner”.

Turning to Cbz-IE(OtBu)AL-aldehyde [PS-1], the “decrease of TNFα stimulation” value in assay [1] (0.5 to 0.1 μg/ml (0.81 to 0.16 μM), HL-60) was “about 60%”. The “influence on TNFα stimulation of the IE1/2 enhancer/promoter (in words)” value in assay [1] is “reduce TNFα stimulation in a concentration-dependent manner”.
